Results reported in publication PMC10108347, “Heterobifunctional Ligase Recruiters Enable pan-Degradation of Inhibitor of Apoptosis Proteins” (Journal of Medicinal Chemistry, 2023).
Several values for one entry are separate records, joined by “and”; a condition that tells them apart may be missing. Equal values may be shown once. Read-outs that look alike come from different tables or passages of the source. Each block holds one compound with its values, some of them ahead of it.

Assays:
RPMI-8826 = experiment: CellTiter-Glo cell viability assay, RPMI-8826; assay type: cell-based
Experimental: (§1) As TNF-α and related signaling cascades represent crucial factors for the single-agent activity of IAP-targeting compounds,[29],[38],[39],[55] the viability inhibition of sensitive cell lines was evaluated in the presence and absence of this inflammatory stimulus. […] These effects were independent of IAP baseline levels (Figure S16), which is in agreement with the previous studies of IAP antagonists.
(§2) Cells were seeded in 384-well plates with respective treatments, and plates were incubated at 37 °C for 96 h. Viability assays were performed with or without the addition of TNF-α at 1 ng/mL. The cell viability readout was measured using the CellTiter-Glo Luminescent Cell Viability Assay (Promega, Madison, USA) and measured with a Synergy LX Multi-Mode plate reader (BioTek, Vermont, USA). All conditions were normalized to the DMSO-treated control. Data represents the mean ± SD of biological triplicates.

SUDHL4 = experiment: CellTiter-Glo cell viability assay, SUDHL4; assay type: cell-based; conditions: Homo sapiens
Experimental: as §1, §2

SUDHL6 = experiment: CellTiter-Glo cell viability assay, SUDHL6; assay type: cell-based; conditions: Homo sapiens
Experimental: as §1, §2

MM.1S cells proteome = experiment: diaPASEF quantitative proteomics in MM.1S cells: proteome-wide degradation selectivity (other proteins); assay type: cell-based, human; conditions: for Precursor intensity (DIA-NN), CLPX precursor AAAAADLANR2: CLPX_HUMAN (O76031), ATP-dependent Clp protease ATP-binding subunit clpX-like, mitochondrial; for Precursor intensity (DIA-NN), SAMD1 precursor AAAAAATAPPSPGPAQPGPR2: SAMD1_HUMAN (Q6SPF0), Atherin; for Precursor intensity (DIA-NN), ZFP91 precursor AAAAAAAAAVSR2: ZFP91_HUMAN (Q96JP5), E3 ubiquitin-protein ligase ZFP91
Experimental: To analyze the proteome-wide degradation selectivity of hetero-PROTACs 9, 25, and 27, a diaPASEF-based mass spectrometry approach was employed.[54] MM.1S cells were treated with 100 nM PROTACs for 3 h. […] Accordingly, global proteomic plots show the mathematically imputed levels of IAP proteins in treatment groups if the corresponding IAP was detected in the control treatment (see also Experimental Section).
MM1s cells were treated with DMSO or 0.1 μM of compound for 3 h. The cells were harvested by centrifugation and washed with phosphate-buffered saline before snap-freezing in liquid nitrogen. The cells were lysed by addition of lysis buffer (8 M urea, 50 mM NaCl, 50 mM 4-(2-hydroxyethyl)-1-piperazine-ethanesulfonic acid (EPPS) pH 8.5, protease, and phosphatase inhibitors) and homogenization by bead beating (BioSpec) for three repeats of 30 s at 2400. Bradford assay was used to determine the final protein concentration in the clarified cell lysate. 50 μg of protein for each sample was reduced, alkylated, and precipitated using methanol/chloroform as previously described,[64] and the resulting washed precipitated protein was allowed to air dry. The precipitated protein was resuspended in 4 M urea, 50 mM HEPES pH 7.4, followed by dilution to 1 M urea with the addition of 200 mM EPPS, pH 8. […] The LysC digestion was diluted to 0.5 M urea with 200 mM EPPS pH 8, followed by digestion with trypsin (1:50; enzyme/protein) for 6 h at 37 °C. Sample digests were acidified with formic acid to a pH of 2–3 prior to desalting using C18 solid-phase extraction plates (SOLA, Thermo Fisher Scientific). Desalted peptides were dried in a vacuum centrifuge and reconstituted in 0.1% formic acid for LC–MS analysis.
Data were collected using a TimsTOF Pro2 (Bruker Daltonics, Bremen, Germany) coupled to a nanoElute LC pump (Bruker Daltonics, Bremen, Germany) via a CaptiveSpray nanoelectrospray source. […] Peptides were separated using a 50 min gradient of 2–30% buffer B (acetonitrile in 0.1% formic acid) with a flow rate of 250 nL/min and column temperature maintained at 50 °C.
Data-Dependent Acquisition (DDA) was performed in the Parallel Accumulation-Serial Fragmentation (PASEF) mode to determine effective ion mobility windows for downstream diaPASEF data collection.[54] The diaPASEF parameters included 100% duty cycle using accumulation and ramp times of 50 ms each, 1 TIMS-MS scan, and 10 PASEF ramps per acquisition cycle. The TIMS-MS survey scan was acquired between 100–1700 m/z and 1/K0 of 0.7–1.3 V × s/cm^2. Precursors with 1–5 charges were selected, and those that reached an intensity threshold of 20,000 arbitrary units were actively excluded for 0.4 min. The quadrupole isolation width was set to 2 m/z for m/z < 700 and 3 m/z for m/z > 800, with the m/z between 700 and 800 m/z being interpolated linearly. […] To perform diaPASEF, the precursor distribution in the DDA m/z-ion mobility plane was used to design an acquisition scheme for DIA data collection, which included two windows in each 50 ms diaPASEF scan. Data was acquired using 16 of these 25 Da precursor double window scans (creating 32 windows), which covered the diagonal scan line for doubly and triply charged precursors, with singly charged precursors able to be excluded by their position in the m/z-ion mobility plane. These precursor isolation windows were defined between 400–1200 m/z and 1/K0 of 0.7–1.3 V × s/cm^2.
The diaPASEF raw file processing and controlling peptide and protein level false discovery rates, assembling proteins from peptides, and protein quantification from peptides were performed using library-free analysis in DIA-NN 1.8.[65] The library-free mode performs an in silico digestion of a given protein sequence database alongside deep learning-based predictions to extract the DIA precursor data into a collection of MS^2 spectra.

[1] = Log D7.4 measurement by chromatographic (fast-gradient HPLC) method; conditions: pH 7.4
Experimental: The system was calibrated by plotting the retention times of six different drugs (atenolol, metoprolol, labetalol, diltiazem, triphenylene, and permethrin) versus their literature-known log D7.4 in a calibration line (R^2 = 0.99). Subsequently, the mean retention times of the analytes were taken to calculate their log D7.4 values with the aid of the calibration line. At least two independent measurements of each analyte were performed.

CRBN = CRBN (Homo sapiens, UniProt Q96SW2); experiment: Immunoblotting (western blot) quantification of CRBN levels in MM.1S cells; conditions: MM1.S, 16 h, read-out: %remaining protein CRBN
Chain of CRBN (Q96SW2 whole entry): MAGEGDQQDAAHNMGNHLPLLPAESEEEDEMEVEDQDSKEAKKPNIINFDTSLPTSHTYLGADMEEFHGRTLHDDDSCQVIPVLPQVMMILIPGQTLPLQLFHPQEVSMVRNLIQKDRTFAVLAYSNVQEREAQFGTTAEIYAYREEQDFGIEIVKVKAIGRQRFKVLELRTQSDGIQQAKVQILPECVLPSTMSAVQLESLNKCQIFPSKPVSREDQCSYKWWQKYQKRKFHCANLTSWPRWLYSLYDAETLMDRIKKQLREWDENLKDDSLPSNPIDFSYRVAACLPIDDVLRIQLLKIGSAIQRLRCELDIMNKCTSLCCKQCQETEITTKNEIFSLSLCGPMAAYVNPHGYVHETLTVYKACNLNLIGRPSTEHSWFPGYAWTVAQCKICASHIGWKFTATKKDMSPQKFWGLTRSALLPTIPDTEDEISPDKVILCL
Experimental: (§3) To evaluate the capability of our panel of hetero-PROTACs for E3 ligase degradation, VHL19, VHL30, CRBN, cIAP1, cIAP2, and XIAP levels were quantified by western blot analyses. […] SDS-PAGE was performed, and proteins were then transferred onto PVDF membranes. Blotted membranes were blocked with 5% milk in Tris-buffered saline/Tween20 (TBST). Primary antibodies were diluted in 5% BSA in TBST, and incubations were performed overnight at 4 °C. Secondary HRP-conjugated antibodies diluted in 5% milk were incubated for 1 h at room temperature. Detection of proteins on PVDF was carried out using the WesternBright ECL HRP substrate or the WesternBright Sirius HRP substrate (Advansta, San Jose, USA) and imaged with LAS 4000× (Fujifilm). Membranes were subjected to 10 min incubation with Restore Western Blot Stripping Buffer (Thermo Fisher Scientific, Waltham, USA), followed by TBST washes. After brief re-activation with methanol, the membranes were blocked, and further probing of proteins was carried out.
(§4) Quantification of blots was performed using ImageJ software (National Institutes of Health).

IKZF3 = experiment: Immunoblotting (western blot) quantification of IKZF3 levels in MM.1S cells; conditions: for %remaining protein IKZF3: 16 h treatment at 0.1 μM, normalized to loading control and DMSO
Experimental: as §3, §4

[2] = precursor charge 2, per-replicate values (rep1, rep2)
[3] = MM.1S cells, 0.1 μM, 3 h, log2 fold change compound vs CTRLs (limma)
[4] = RL4_HUMAN (P36578), 60S ribosomal protein L4, precursor charge 1, per-replicate values (rep1, rep2)
[5] = precursor charge 2, per-replicate values (rep1, rep2), listed as Gue3582
[6] = precursor charge 2, per-replicate values (rep1, rep2), listed as SAB141

SMILES: CN[C@@H](C)C(=O)N[C@@H](C(=O)N1CCC[C@H]1C(=O)N[C@@H]1c2ccccc2C[C@@H]1OCC#CC#CCO[C@H]1Cc2ccccc2[C@H]1NC(=O)[C@@H]1CCCN1C(=O)[C@H](NC(=O)[C@H](C)NC)C1CCCCC1)C1CCCCC1 [AZD5582, reference compound]
IC50 (RPMI-8826; SI csv, head prints only the cell line, no quantity or unit, values parallel Table 1/S8, read-out: RPMI-8826): 470 nM | IC50 (SUDHL4; SU-DHL-4, SI csv, head prints only the cell line, no quantity or unit, values parallel Table 1/S8, read-out: SUDHL4): 1640 nM | IC50 (SUDHL6; SU-DHL-6, SI csv, head prints only the cell line, no quantity or unit, values parallel Table 1/S8, read-out: SUDHL6): 1.5 nM | Precursor intensity (DIA-NN), CLPX precursor AAAAADLANR2 (MM.1S cells proteome; [2]): 16915 and 25995.2 | logFC ATP5MD (MM.1S cells proteome; [3]): -0.4905 | logFC CD44 (MM.1S cells proteome; [3]): -0.09493 | logFC EDF1 (MM.1S cells proteome; [3]): -0.1747 | logFC GOT2 (MM.1S cells proteome; [3]): -0.1164 | logFC RRP15 (MM.1S cells proteome; [3]): -0.3053 | Precursor intensity (DIA-NN), RPL4 precursor AAAAAAALQAK1 (MM.1S cells proteome; [4]): 331.845 | Precursor intensity (DIA-NN), RPL4 precursor AAAAAAALQAK2 (MM.1S cells proteome; RL4_HUMAN (P36578), 60S ribosomal protein L4, precursor charge 2, per-replicate values (rep1, rep2)): 447305 and 464651 | Precursor intensity (DIA-NN), SAMD1 precursor AAAAAATAPPSPGPAQPGPR2 (MM.1S cells proteome; [2]): 15006.1 and 13237.9 | Precursor intensity (DIA-NN), ZFP91 precursor AAAAAAAAAVSR2 (MM.1S cells proteome; [2]): 67729.2 and 74323 | chromatographic logD [1]: 4.1

SMILES: CN[C@@H](C)C(=O)N[C@H](C(=O)N1C[C@@H](Oc2cccc(OCCCCC(=O)N[C@H](C(=O)N3C[C@H](O)C[C@H]3C(=O)N[C@@H](C)c3ccc(-c4scnc4C)cc3)C(C)(C)C)c2)C[C@H]1C(=O)N[C@@H]1CCCc2ccccc21)C1CCCCC1 [PROTAC 9, (2S,4S)-1-((S)-2-Cyclohexyl-2-((S)-2-(methylamino)propanamido)acetyl)-4-(3-((5-(((S)-1-((2S,4R)-4-hydroxy-2-(((S)-1-(4-(4-methylthiazol-5-yl)phenyl)ethyl)carbamoyl)pyrrolidin-1-yl)-3,3-dimethyl-1-oxobutan-2-yl)amino)-5-oxopentyl)oxy)phenoxy)-N-((R)-1,2,3,4-tetrahydronaphthalen-1-yl)pyrrolidine-2-carboxamide]
IC50 (RPMI-8826; MM cell line, 96 h, TNFα-challenged, read-out: IC50 cell viability RPMI-8826): 2540 nM | IC50 (SUDHL4; SU-DHL-4, DLBCL cell line, 96 h, TNFα-challenged, read-out: IC50 cell viability SUDHL4): 1690 nM | IC50 (SUDHL6; SU-DHL-6, DLBCL cell line, 96 h, TNFα-challenged, read-out: IC50 cell viability SUDHL6): 1.6 nM | Precursor intensity (DIA-NN), CLPX precursor AAAAADLANR2 (MM.1S cells proteome; [5]): 27158.9 and 21797.6 | logFC EIF1AX (MM.1S cells proteome; [3]): 0.2289 | logFC SIGMAR1 (MM.1S cells proteome; [3]): 0.1571 | logFC TAF15 (MM.1S cells proteome; [3]): 0.09552 | logFC TOP1 (MM.1S cells proteome; [3]): 0.1861 | Precursor intensity (DIA-NN), RPL4 precursor AAAAAAALQAK1 (MM.1S cells proteome; RL4_HUMAN (P36578), 60S ribosomal protein L4, precursor charge 1, per-replicate values (rep1, rep2), listed as Gue3582): 83.0044 and 593.705 | Precursor intensity (DIA-NN), RPL4 precursor AAAAAAALQAK2 (MM.1S cells proteome; RL4_HUMAN (P36578), 60S ribosomal protein L4, precursor charge 2, per-replicate values (rep1, rep2), listed as Gue3582): 450548 and 462008 | Precursor intensity (DIA-NN), SAMD1 precursor AAAAAATAPPSPGPAQPGPR2 (MM.1S cells proteome; [5]): 15172 and 13054.7 | Precursor intensity (DIA-NN), ZFP91 precursor AAAAAAAAAVSR2 (MM.1S cells proteome; [5]): 70631.3 and 75175.8

SMILES: CN[C@@H](C)C(=O)N[C@H](C(=O)N1C[C@@H](Oc2cccc(OCCOCCCCCCOCCCCCCNc3cccc4c3C(=O)N(C3CCC(=O)NC3=O)C4=O)c2)C[C@H]1C(=O)N[C@@H]1CCCc2ccccc21)C1CCCCC1 (stereo partly drawn) [PROTAC 25, (2S,4S)-1-((S)-2-Cyclohexyl-2-((S)-2-(methylamino)propanamido)acetyl)-4-(3-(2-((6-((6-((2-(2,6-dioxopiperidin-3-yl)-1,3-dioxoisoindolin-4-yl)amino)hexyl)oxy)hexyl)oxy)ethoxy)phenoxy)-N-((R)-1,2,3,4-tetrahydronaphthalen-1-yl)pyrrolidine-2-carboxamide]
IC50 (RPMI-8826; read-out: RPMI-8826): 1520 nM | IC50 (SUDHL4; SU-DHL-4, read-out: SUDHL4): 920 nM | IC50 (SUDHL6; SU-DHL-6, read-out: SUDHL6): 14 nM | Precursor intensity (DIA-NN), CLPX precursor AAAAADLANR2 (MM.1S cells proteome; [6]): 7987.33 and 21462.9 | logFC COX5A (MM.1S cells proteome; [3]): -0.5474 | logFC LMAN2 (MM.1S cells proteome; [3]): -0.1147 | logFC TOP1 (MM.1S cells proteome; [3]): 0.3058 | Precursor intensity (DIA-NN), RPL4 precursor […]1 (MM.1S cells proteome; [4]): 321.394 | Precursor intensity (DIA-NN), RPL4 precursor […]2 (MM.1S cells proteome; RL4_HUMAN (P36578), 60S ribosomal protein L4, precursor charge 2, per-replicate values (rep1, rep2), listed as SAB141): 467864 and 464908 | Precursor intensity (DIA-NN), SAMD1 precursor AAAAAATAPPSPGPAQPGPR2 (MM.1S cells proteome; [6]): 14133.9 and 10400.6 | Precursor intensity (DIA-NN), ZFP91 precursor AAAAAAAAAVSR2 (MM.1S cells proteome; [6]): 72214.7 and 61349 | chromatographic logD [1]: 6 | remaining activity at 0.1 µM (CRBN): 91% | IKZF3 degradation (in words) (IKZF3; 16 h, 1 μM): substantial IKZF3 degradation at 1 μM | %remaining protein IKZF3 (IKZF3): 95%

chromatographic logD [1]: 7.2 | remaining activity at 0.1 µM (CRBN): 95%
SMILES: CN[C@@H](C)C(=O)N[C@H](C(=O)N1C[C@@H](Oc2cccc(OCCCCCCOCCCCCCOCCCCCCNc3cccc4c3C(=O)N(C3CCC(=O)NC3=O)C4=O)c2)C[C@H]1C(=O)N[C@@H]1CCCc2ccccc21)C1CCCCC1 (stereo partly drawn) [PROTAC 27, (2S,4S)-1-((S)-2-Cyclohexyl-2-((S)-2-(methylamino)propanamido)acetyl)-4-(3-((6-((6-((6-((2-(2,6-dioxopiperidin-3-yl)-1,3-dioxoisoindolin-4-yl)amino)hexyl)oxy)hexyl)oxy)hexyl)oxy)phenoxy)-N-((R)-1,2,3,4-tetrahydronaphthalen-1-yl)pyrrolidine-2-carboxamide]
logFC COX6C (MM.1S cells proteome; [3]): -0.5143 | logFC EIF4B (MM.1S cells proteome; [3]): -0.1592 | logFC HNRNPA2B1 (MM.1S cells proteome; [3]): -0.1781 | logFC POTEJ (MM.1S cells proteome; [3]): -0.3899 | logFC TPM3 (MM.1S cells proteome; [3]): -0.214 | %remaining protein IKZF3 (IKZF3): 95%
